In ChEMBL document CHEMBL5696442, “Discovery of type II inhibitors of TGFβ-activated kinase 1 (TAK1) and mitogen-activated protein kinase kinase kinase kinase 2 (MAP4K2)” (J Med Chem, 2015):

What was measured:
[1] = target: Tyrosine-protein kinase Yes (Homo sapiens) (UniProt P07947); experiment: Inhibition of YES ACT labeling site in human Huh-7 cell lysate at 1 uM by KiNativ Profiling analysis relative to control; format: subcellular
[2] = target: 5'-AMP-activated protein kinase catalytic subunit alpha-1 (Homo sapiens) (UniProt Q13131); experiment: Inhibition of AMPKa1 Lys1 labeling site in human Huh-7 cells at 1 uM by KiNativ Profiling analysis relative to control; format: cell-based
Sequence of 5'-AMP-activated protein kinase catalytic subunit alpha-1 (Homo sapiens) (Q13131 whole entry, looked up): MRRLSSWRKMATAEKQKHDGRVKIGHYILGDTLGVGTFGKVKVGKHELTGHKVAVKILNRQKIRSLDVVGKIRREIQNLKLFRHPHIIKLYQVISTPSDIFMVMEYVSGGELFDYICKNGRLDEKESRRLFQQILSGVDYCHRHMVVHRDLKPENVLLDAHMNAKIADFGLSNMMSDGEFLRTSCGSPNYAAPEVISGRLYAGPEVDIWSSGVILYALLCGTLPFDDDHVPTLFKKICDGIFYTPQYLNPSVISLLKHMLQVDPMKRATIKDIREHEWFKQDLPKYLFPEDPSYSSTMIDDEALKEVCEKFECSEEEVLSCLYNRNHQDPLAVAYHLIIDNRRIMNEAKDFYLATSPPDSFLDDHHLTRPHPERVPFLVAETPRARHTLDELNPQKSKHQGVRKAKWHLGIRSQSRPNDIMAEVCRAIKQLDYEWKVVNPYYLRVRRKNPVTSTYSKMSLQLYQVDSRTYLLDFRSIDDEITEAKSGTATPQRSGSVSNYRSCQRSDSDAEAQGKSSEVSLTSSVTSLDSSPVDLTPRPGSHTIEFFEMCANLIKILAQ

[3] = target: Microtubule-associated serine/threonine-protein kinase 1 (Homo sapiens) (UniProt Q9Y2H9); experiment: Inhibition of MAST1 Lys2 labeling site in human Huh-7 cells at 1 uM by KiNativ Profiling analysis relative to control
Sequence of Microtubule-associated serine/threonine-protein kinase 1 (Homo sapiens) (Q9Y2H9 whole entry, looked up): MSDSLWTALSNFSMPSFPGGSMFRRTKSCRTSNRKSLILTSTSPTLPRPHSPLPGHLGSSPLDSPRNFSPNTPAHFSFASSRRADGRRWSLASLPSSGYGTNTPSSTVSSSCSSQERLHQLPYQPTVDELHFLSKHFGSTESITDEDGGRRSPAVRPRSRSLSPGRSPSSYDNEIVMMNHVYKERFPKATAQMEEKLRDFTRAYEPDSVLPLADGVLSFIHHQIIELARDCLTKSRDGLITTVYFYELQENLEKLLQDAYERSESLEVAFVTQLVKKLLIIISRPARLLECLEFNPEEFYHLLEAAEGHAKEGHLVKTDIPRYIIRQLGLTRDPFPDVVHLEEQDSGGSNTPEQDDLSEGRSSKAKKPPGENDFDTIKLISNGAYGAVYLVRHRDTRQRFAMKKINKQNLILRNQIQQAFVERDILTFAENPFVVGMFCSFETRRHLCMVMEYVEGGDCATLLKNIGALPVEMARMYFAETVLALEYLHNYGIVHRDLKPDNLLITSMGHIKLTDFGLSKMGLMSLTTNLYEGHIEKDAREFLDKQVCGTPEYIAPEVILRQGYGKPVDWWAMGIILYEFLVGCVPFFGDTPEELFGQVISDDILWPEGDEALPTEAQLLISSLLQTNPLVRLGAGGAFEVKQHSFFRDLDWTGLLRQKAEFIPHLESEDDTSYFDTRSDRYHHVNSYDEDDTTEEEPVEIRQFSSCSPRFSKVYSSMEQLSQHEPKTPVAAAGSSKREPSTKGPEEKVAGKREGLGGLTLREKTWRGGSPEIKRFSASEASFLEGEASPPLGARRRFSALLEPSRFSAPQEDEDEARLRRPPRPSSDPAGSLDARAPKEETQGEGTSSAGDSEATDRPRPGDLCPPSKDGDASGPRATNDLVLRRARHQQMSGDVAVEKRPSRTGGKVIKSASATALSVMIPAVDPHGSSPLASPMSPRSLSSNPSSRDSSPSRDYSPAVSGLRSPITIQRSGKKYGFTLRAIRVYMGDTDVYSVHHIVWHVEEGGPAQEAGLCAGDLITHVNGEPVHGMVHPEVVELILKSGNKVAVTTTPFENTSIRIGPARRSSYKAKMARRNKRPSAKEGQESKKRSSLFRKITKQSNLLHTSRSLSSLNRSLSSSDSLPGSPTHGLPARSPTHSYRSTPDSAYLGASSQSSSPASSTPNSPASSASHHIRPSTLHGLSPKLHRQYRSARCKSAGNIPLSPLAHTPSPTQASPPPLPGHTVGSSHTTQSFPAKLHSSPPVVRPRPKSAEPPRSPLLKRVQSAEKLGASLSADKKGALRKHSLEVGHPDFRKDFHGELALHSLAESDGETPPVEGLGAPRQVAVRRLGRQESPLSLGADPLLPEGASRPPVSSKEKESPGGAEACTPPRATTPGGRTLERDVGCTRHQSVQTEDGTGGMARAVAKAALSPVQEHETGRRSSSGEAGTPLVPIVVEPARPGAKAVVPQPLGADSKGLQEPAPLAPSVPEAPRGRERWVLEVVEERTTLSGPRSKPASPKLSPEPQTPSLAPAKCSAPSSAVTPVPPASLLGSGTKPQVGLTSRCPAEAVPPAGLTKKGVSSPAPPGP

[4] = target: T1, Mitogen-activated protein kinase kinase kinase 15 (Homo sapiens) (UniProt Q6ZN16); experiment: Inhibition of MAP3K15 Lys1 labeling site harbouring IAIKEIPERDSR in human A-375 cells at 0.05 uM by KiNativ Profiling analysis relative to control; format: cell-based
T1 sequence (whole entry): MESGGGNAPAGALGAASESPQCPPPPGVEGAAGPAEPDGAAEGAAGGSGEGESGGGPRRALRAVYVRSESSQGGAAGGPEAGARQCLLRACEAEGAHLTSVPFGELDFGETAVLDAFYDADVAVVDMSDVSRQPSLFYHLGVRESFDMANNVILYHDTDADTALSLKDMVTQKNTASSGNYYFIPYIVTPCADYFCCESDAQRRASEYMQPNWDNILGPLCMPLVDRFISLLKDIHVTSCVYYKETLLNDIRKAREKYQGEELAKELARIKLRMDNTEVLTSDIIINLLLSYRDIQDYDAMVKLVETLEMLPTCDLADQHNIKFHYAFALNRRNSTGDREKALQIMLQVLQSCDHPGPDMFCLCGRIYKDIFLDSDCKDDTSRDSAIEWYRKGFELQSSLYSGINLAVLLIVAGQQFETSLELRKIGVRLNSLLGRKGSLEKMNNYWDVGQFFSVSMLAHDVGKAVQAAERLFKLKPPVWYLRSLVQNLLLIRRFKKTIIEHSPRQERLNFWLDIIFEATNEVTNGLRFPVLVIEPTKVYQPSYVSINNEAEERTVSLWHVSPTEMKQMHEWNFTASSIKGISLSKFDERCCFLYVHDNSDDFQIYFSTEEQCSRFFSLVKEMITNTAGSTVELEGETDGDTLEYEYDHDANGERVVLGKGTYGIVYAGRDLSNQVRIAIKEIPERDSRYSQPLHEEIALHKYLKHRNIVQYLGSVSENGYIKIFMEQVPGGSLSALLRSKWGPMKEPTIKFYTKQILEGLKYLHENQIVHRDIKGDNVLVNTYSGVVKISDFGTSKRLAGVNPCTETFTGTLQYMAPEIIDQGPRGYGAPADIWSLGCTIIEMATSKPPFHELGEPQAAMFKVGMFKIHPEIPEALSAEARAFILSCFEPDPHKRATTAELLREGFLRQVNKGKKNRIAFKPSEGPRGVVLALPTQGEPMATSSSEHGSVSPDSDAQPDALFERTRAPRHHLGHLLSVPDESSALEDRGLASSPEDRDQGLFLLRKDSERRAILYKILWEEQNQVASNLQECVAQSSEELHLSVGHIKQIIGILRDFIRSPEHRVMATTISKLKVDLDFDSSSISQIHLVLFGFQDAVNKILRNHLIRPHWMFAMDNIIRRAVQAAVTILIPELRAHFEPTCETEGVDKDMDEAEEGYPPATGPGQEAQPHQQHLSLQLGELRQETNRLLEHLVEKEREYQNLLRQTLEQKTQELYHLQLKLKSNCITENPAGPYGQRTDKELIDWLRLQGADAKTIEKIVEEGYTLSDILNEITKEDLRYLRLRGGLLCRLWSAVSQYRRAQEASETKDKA

[5] = target: T2, Mitogen-activated protein kinase kinase kinase kinase 2 (Homo sapiens) (UniProt Q12851); experiment: Inhibition of MAP4K2 (GCK) Lys2 labeling site in human A-375 cells at 0.05 uM by KiNativ Profiling analysis relative to control; format: cell-based
T2 sequence (whole entry): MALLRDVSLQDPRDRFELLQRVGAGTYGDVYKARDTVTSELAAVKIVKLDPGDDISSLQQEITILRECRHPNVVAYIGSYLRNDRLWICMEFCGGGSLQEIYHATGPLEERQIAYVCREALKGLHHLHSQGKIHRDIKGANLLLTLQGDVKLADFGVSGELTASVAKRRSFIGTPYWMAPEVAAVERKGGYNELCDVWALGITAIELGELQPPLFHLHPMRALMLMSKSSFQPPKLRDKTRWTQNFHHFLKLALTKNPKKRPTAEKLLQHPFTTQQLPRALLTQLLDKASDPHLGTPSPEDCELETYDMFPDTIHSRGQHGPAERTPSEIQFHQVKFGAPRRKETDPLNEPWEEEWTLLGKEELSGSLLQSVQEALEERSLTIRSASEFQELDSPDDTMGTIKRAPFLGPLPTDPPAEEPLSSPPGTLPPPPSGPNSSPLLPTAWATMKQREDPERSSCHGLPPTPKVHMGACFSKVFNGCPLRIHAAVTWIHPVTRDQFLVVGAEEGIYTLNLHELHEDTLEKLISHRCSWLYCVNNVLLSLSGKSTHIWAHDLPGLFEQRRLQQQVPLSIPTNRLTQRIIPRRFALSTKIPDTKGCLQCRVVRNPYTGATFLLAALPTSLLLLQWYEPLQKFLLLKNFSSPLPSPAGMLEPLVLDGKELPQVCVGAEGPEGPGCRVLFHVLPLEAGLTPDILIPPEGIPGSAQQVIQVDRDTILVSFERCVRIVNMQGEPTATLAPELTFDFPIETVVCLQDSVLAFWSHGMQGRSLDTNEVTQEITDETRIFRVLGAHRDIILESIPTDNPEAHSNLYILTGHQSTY

[6] = tested on: Tyrosine-protein kinase ABL1 (Homo sapiens), P00519 [F317I]; experiment: Inhibition of phosphorylated ABL1 F317I mutant (unknown origin) at 1 uM by Ambit Kinomescan binding assay relative to control; values are per cent of control
Sequence of Tyrosine-protein kinase ABL1 (Homo sapiens), P00519 [F317I] (P00519 whole entry F317I): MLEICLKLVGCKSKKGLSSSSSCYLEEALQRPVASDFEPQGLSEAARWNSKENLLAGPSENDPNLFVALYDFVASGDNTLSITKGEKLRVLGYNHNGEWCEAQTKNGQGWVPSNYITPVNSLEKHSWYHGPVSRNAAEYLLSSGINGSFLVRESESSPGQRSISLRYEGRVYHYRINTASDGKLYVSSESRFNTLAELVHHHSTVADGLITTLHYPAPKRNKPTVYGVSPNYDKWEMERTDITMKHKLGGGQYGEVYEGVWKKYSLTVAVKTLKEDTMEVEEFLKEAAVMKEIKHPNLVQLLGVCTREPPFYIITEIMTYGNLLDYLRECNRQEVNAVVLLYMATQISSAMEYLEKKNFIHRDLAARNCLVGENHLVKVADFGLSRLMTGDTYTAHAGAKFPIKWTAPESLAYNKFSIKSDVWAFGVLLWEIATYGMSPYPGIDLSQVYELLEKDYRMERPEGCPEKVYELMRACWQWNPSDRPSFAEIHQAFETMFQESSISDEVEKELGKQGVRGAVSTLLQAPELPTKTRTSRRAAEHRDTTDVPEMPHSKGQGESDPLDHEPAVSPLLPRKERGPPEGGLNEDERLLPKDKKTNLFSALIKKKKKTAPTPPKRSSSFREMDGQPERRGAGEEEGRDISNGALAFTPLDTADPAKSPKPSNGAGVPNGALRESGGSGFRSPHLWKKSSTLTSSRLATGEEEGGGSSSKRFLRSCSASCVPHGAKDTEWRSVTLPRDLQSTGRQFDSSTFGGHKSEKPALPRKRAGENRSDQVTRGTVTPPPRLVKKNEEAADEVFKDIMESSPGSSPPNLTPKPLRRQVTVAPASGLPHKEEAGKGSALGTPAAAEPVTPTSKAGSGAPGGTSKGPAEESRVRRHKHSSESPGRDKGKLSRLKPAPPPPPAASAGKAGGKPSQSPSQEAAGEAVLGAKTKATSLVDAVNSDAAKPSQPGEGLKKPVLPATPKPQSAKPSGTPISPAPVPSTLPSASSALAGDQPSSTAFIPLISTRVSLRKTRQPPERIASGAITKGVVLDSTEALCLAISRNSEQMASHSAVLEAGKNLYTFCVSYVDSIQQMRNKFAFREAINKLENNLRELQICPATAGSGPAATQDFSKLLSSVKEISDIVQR

Sequence of Tyrosine-protein kinase Yes (Homo sapiens) (P07947 2-543 limits assumed): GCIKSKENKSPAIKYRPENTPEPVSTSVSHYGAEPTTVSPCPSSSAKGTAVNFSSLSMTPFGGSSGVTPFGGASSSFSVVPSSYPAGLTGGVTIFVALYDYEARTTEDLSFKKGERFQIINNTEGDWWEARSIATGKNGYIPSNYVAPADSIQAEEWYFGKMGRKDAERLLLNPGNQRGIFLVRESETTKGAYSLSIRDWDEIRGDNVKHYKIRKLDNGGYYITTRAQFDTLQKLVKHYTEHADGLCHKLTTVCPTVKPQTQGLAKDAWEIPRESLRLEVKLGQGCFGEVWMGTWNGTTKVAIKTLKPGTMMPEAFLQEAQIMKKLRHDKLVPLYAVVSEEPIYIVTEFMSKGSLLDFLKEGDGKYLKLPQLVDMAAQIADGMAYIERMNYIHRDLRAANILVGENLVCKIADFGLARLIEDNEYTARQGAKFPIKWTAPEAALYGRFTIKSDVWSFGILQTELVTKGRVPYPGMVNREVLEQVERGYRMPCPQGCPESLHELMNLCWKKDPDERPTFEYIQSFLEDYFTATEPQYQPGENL

CNc1cc(Oc2cc(C(=O)Nc3cc(N4CCN(C)CC4)cc(C(F)(F)F)c3)ccc2C)ncn1
inhibition [1]: 22% | inhibition [2]: -7.5% | inhibition [3]: 53.8%

CCN1CCN(Cc2ccc(NC(=O)c3ccc(C)c(Oc4ccnc5[nH]ccc45)c3)cc2C(F)(F)F)CC1
inhibition [4]: -3.3% | inhibition [5]: 95.1%

CCN1CCN(Cc2ccc(NC(=O)c3ccc(C)c(/C=C/c4cnc5[nH]ccc5c4OC)c3)cc2C(F)(F)F)CC1
percent of control [6]: 22%
